Our source for the IC50 values is ChEMBL document CHEMBL1130592, “The synthesis and biological activity of a novel series of diazepine MMP inhibitors” (Bioorg Med Chem Lett, 1998).

Test [1] addresses T1, Interstitial collagenase (Homo sapiens, UniProt P03956).
T1 sequence (P03956 whole entry): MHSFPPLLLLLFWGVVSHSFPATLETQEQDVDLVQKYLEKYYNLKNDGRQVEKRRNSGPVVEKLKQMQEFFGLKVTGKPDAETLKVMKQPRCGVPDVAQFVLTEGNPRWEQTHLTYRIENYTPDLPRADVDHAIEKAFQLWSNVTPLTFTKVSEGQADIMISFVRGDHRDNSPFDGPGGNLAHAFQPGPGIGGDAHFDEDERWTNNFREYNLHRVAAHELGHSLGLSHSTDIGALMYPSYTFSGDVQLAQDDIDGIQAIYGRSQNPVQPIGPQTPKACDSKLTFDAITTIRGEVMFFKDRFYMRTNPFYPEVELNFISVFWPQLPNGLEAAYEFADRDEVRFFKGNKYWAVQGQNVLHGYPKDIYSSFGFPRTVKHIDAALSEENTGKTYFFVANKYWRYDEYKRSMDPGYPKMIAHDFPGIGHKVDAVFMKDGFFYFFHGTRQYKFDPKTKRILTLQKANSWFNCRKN
Nature of the test: Inhibition of matrix metalloprotease-1 (MMP-1).

In test [2] the target is Matrix metalloproteinase-9 (Homo sapiens, UniProt P14780). Put plainly: Inhibition of matrix metalloprotease-9 (MMP-9).
For test [3], the target named is Collagenase 3 (Homo sapiens, UniProt P45452).
Description: Inhibition of matrix metalloprotease-13 (MMP-13)

SMILES strings stand for the structures.

Chain of Matrix metalloproteinase-9 (P14780 whole entry): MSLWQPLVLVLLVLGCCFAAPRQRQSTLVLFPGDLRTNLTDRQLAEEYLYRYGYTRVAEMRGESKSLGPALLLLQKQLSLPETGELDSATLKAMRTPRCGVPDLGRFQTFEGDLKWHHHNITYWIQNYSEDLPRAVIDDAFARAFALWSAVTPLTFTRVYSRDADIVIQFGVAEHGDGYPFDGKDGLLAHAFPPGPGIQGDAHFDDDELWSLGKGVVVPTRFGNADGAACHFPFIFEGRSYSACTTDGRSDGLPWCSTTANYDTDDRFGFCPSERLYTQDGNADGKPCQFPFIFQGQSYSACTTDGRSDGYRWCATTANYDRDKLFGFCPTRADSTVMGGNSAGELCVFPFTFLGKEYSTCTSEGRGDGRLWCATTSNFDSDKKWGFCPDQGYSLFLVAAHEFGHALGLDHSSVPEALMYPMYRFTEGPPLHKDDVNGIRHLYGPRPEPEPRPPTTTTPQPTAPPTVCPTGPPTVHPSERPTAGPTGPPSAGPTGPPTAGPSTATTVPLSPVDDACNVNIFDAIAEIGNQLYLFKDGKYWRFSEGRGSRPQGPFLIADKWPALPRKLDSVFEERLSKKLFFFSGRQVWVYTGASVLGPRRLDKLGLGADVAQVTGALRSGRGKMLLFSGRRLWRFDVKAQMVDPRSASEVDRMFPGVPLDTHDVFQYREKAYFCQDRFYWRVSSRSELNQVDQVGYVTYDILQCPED

Regarding `COc1ccc(S(=O)(=O)N2CCCN(C(=O)CNC(=O)OC(C)(C)C)CC2C(=O)NO)cc1` (stereo unspecified), the results for the IC50 in test [1], in test [2] and in test [3] were 0.69 µM, 0.023 µM and 0.016 µM, respectively.
Turning to `COc1ccc(S(=O)(=O)N2CCCN(C(=O)N[C@@H](C)c3ccccc3)CC2C(=O)NO)cc1` (stereo partly specified), the IC50 (commonly the concentration that inhibits the measured activity by half) in test [1] stood at 0.312 µM; in test [2], 0.0092 µM; in test [3], 0.0104 µM.
As for `COc1ccc(S(=O)(=O)N2CCCN(C(=O)OC(C)(C)C)CC2C(=O)NO)cc1` (stereo unspecified), the IC50 in test [1] was found to be 0.618 µM; in test [2], 0.0091 µM; in test [3], 0.026 µM.
For `COc1ccc(S(=O)(=O)N2CCCNCC2C(=O)NO)cc1` (stereo unspecified), in that order: 0.091 µM, 0.06 µM and 0.0051 µM.
The matching figures for `COc1ccc(S(=O)(=O)N2CCCN(C(=O)C(C)(C)C)CC2C(=O)NO)cc1` (stereo unspecified): 0.251 µM, 0.0048 µM and 0.011 µM.
The matching figures for `COc1ccc(S(=O)(=O)N2CCCN(C(=O)Nc3ccccc3)CC2C(=O)NO)cc1` (stereo unspecified): 0.309 µM, 0.018 µM and 0.017 µM.
With `COc1ccc(S(=O)(=O)N2CCCN(Cc3ccccc3)CC2C(=O)NO)cc1` (stereo unspecified), the IC50 in test [1] came out at 0.445 µM; in test [2] it was 0.031 µM; in test [3], 0.065 µM.
The matching figures for `COc1ccc(S(=O)(=O)N2CCCN(C(=O)CN)CC2C(=O)NO)cc1` (stereo unspecified): 0.703 µM, 0.157 µM and 0.046 µM.
As to `COc1ccc(S(=O)(=O)N2CCCN(C(=O)c3ccccc3)CC2C(=O)NO)cc1` (stereo unspecified), the IC50 in test [1] is 0.045 µM; in test [2] it was 0.002 µM; in test [3] it was 0.0022 µM.
For `O=C(NO)C1CN(C(=O)c2ccccc2)CCCN1S(=O)(=O)c1ccc(Oc2ccccc2)cc1` (stereo unspecified), in that order: 0.022 µM, 0.0012 µM and 0.0013 µM.
For `COc1ccc(S(=O)(=O)N2CCCN(C(=O)c3ccc(OC(F)(F)F)cc3)CC2C(=O)NO)cc1` (stereo unspecified), in that order: 0.128 µM, 0.004 µM and 0.0062 µM.
The matching figures for `COc1ccc(S(=O)(=O)N2CCCN(C(=O)c3ccccc3-c3ccccc3)CC2C(=O)NO)cc1` (stereo unspecified): 0.116 µM, 0.0033 µM and 0.0046 µM.
